From article PMC11274128, “Modification and Synergistic Studies of a Novel Frog Antimicrobial Peptide against Pseudomonas aeruginosa Biofilms” (Antibiotics, 2024)
≈ marks a conversion by molar mass, not a printed value. Like-named read-outs stand apart in the source and are kept apart here. Bridge positions count the residues as written; N and C are the ends. Peptide text beside a SMILES is read from it.

Columns and labels:
[1] = system: P. aeruginosa (ATCC CRM 9027); experiment: microbe, parasite or virus in culture; type: cell-based, Pseudomonas aeruginosa; conditions: planktonic P. aeruginosa ATCC CRM 9027; for MIC: 37 °C, nine repeats of three independent experiments; for MBC: lowest concentration killing 99.9% of inoculum
Source text: (§1) The minimum inhibitory concentration (MIC) is the minimum concentration of an antimicrobial agent that prevents the visible growth of a bacterium or bacteria. The MIC is an important piece of data for research on new antimicrobial agents and helps in the effective selection of antibiotics to improve the success of treatment. The minimum bactericidal concentration (MBC) is defined as the lowest antibiotic concentration that kills 99.9% of the inoculum. This study mainly contained eight different microorganisms, which were Staphylococcus aureus (ATCC 6538), methicillin-resistant Staphylococcus aureus (NCTC 12493), Enterococcus faecalis (NCTC 12697), Escherichia coli (ATCC 8739), Klebsiella pneumoniae (ATCC 43816), Pseudomonas aeruginosa (ATCC CRM 9027), Acinetobacter baumannii (BAA 747), and Candida albicans (ATCC 10231). The bacteria were incubated in the compatible medium at 37 °C overnight.

C. albicans (ATCC 10231) = type: cell-based, Candida albicans; conditions: yeast C. albicans ATCC 10231; for MIC: 37 °C, nine repeats of three independent experiments; for MBC: lowest concentration killing 99.9% of inoculum
Source text: as §1

[2] = system: A. baumannii BAA 747 biofilm; type: cell-based, Acinetobacter baumannii; conditions: for MBIC: lowest concentration inhibiting at least 90% of biofilm formation; for MBEC: minimum concentration eradicating at least 99% of the biofilm
Source text: The minimum bactericidal concentration (MBC) is defined as the lowest antibiotic concentration that kills 99.9% of the inoculum. The minimum biofilm inhibitory concentration (MBIC) is the lowest concentration that inhibits at least 90% of the formation of biofilm. The minimum biofilm eradication concentration (MBEC) is the minimum concentration that can eradicate at least 99% of the biofilm. In addition to the eight microorganisms described previously, this experiment was also applied to P. aeruginosa (ATCC 27853, ATCC BAA-2108, P. aeruginosa 01, P. aeruginosa 14).

G+ Bacteria = experiment: Geometric mean of MICs and TI value; type: cell-based; conditions: geometric mean of MICs against tested Gram-positive bacteria
Protocol: The therapeutic potential of antimicrobial agents was valued based on their selectivity toward bacteria in reference to erythrocytes. The TI value was calculated from the results of antibacterial and haemolysis experiments of peptides using the following formula:TI value = HC10 / GMMICs.
GM was the geometric mean of MICs against all tested bacteria.

SMILES | MIC [1] | MBC [1] | MIC (C. albicans (ATCC 10231)) | MBC (C. albicans (ATCC 10231)) | MBIC [2] | MBEC [2] | MIC ([1]; read-out: MIC) | MBC ([1]; read-out: MBC) | GM (geometric mean of MICs), G+ Bacteria (G+ Bacteria)
CC[C@H](C)[C@H](NC(=O)[C@H](CCCCN)NC(=O)[C@H](CCCCN)NC(=O)CNC(=O)[C@H](C)NC(=O)[C@H](CCCNC(=N)N)NC(=O)[C@H](CC(C)C)NC(=O)[C@@H](NC(=O)[C@H](C)NC(=O)[C@H](CCCNC(=N)N)NC(=O)[C@H](CC(C)C)NC(=O)[C@H](CC(C)C)NC(=O)CN)C(C)C)C(=O)N[C@H](C(=O)N[C@H]1CSSC[C@@H](C(=O)O)NC(=O)[C@H](CCCNC(=N)N)NC(=O)CNC(=O)[C@H](CO)NC(=O)[C@H](CC(C)C)NC(=O)CNC1=O)C(C)C [Peptide 2170-2R] (H-GLLRAVLRAGKKIVCGLSGRC-OH; disulfide 15-21) | 32 µM (≈ 69.4 µg/mL) | 32 µM (≈ 69.4 µg/mL) | 64 µM (≈ 139 µg/mL) | 128 µM (≈ 278 µg/mL) | 8 µM | 16 µM | – | – | –
CC[C@H](C)[C@H](NC(=O)[C@H](CCCCN)NC(=O)[C@H](CCCCN)NC(=O)CNC(=O)[C@H](C)NC(=O)CNC(=O)[C@H](CC(C)C)NC(=O)[C@@H](NC(=O)CNC(=O)[C@H](CO)NC(=O)[C@H](CC(C)C)NC(=O)[C@H](CC(C)C)NC(=O)CN)C(C)C)C(=O)N[C@H](C(=O)N[C@H]1CSSC[C@@H](C(=O)O)NC(=O)[C@H](CCCNC(=N)N)NC(=O)CNC(=O)[C@H](CO)NC(=O)[C@H](CC(C)C)NC(=O)CNC1=O)C(C)C [Nigrosin-6VL] (H-GLLSGVLGAGKKIVCGLSGRC-OH; disulfide 15-21) | – | – | 128 µM (≈ 254 µg/mL) | > 128 µM | >128/>128 µM | >128/>128 µM | 32 µM (≈ 63.6 µg/mL) | 128 µM (≈ 254 µg/mL) | 101.59 µM
